# Experimental data as given in ChEMBL document CHEMBL3885881, “DrugMatrix”.
# Species on record: Rattus norvegicus
# Assay: DrugMatrix - Regimen: Daily Repeat
# Type: toxicity, organism-based, Sprague-Dawley
# Set-up: regimen Daily Repeat, gender Male, age 6-8 weeks
# Details: in vivo, po, route oral GAVAGE, […]; for ABSOLUTE BASOPHIL / ABSOLUTE EOSINOPHIL / ABSOLUTE LYMPHOCYTE / ABSOLUTE MONOCYTE / ABSOLUTE SEGMENTED NEUTROPHIL / BASOPHIL / EOSINOPHIL / ERYTHROCYTE COUNT / HEMATOCRIT / HEMOGLOBIN / LEUKOCYTE COUNT / LYMPHOCYTE / MEAN CORPUSCULAR HEMOGLOBIN / MEAN CORPUSCULAR HEMOGLOBIN CONCENTRATION / MEAN CORPUSCULAR VOLUME / MONOCYTE / NEUTROPHIL / NUCLEATED RED BLOOD CELLS / PLATELET COUNT: tissue Blood; for ALANINE AMINOTRANSFERASE / ALBUMIN / ALKALINE PHOSPHATASE / ASPARTATE AMINOTRANSFERASE / BLOOD UREA NITROGEN / CARBON DIOXIDE / CHLORIDE / CHOLESTEROL / CREATINE PHOSPHOKINASE / CREATININE / GLUCOSE / LACTATE DEHYDROGENASE / LIPASE / PHOSPHORUS / POTASSIUM / SODIUM / TOTAL BILIRUBIN / TOTAL PROTEIN / URIC ACID: tissue Plasma
# [1] = 0.6 mg/kg, 120 h, dose level Low, time 5 day
# [2] = 4.5 mg/kg, 72 h, dose level High, time 3 day
# [3] = 4.5 mg/kg, 120 h, dose level High, time 5 day
structure (smiles),measurement,setting,value
O=C(O)CCCc1ccc(N(CCCl)CCCl)cc1 [CHLORAMBUCIL],ABSOLUTE BASOPHIL,[1],0 CELLS/uL
same,ABSOLUTE EOSINOPHIL,[1],245.67 CELLS/uL
same,ABSOLUTE LYMPHOCYTE,[1],10916 CELLS/uL
same,ABSOLUTE MONOCYTE,[1],468.33 CELLS/uL
same,ABSOLUTE SEGMENTED NEUTROPHIL,[1],1403.33 CELLS/uL
same,BASOPHIL,[1],0%
same,EOSINOPHIL,[1],1.67%
same,ERYTHROCYTE COUNT,[1],5.48 x10E6/uL
same,HEMATOCRIT,[1],34.97%
same,HEMOGLOBIN,[1],13.77 G/DL
same,LEUKOCYTE COUNT,[1],13.03 x10E3/uL
same,LYMPHOCYTE,[1],84.33%
same,MEAN CORPUSCULAR HEMOGLOBIN,[1],25.13 pg
same,MEAN CORPUSCULAR HEMOGLOBIN CONCENTRATION,[1],39.37 G/DL
same,MEAN CORPUSCULAR VOLUME,[1],63.77 fL
same,MONOCYTE,[1],3.67%
same,NEUTROPHIL,[1],10.33%
same,NUCLEATED RED BLOOD CELLS,[1],0 /100WBC
same,PLATELET COUNT,[1],1176 x10E3/uL
same,ALANINE AMINOTRANSFERASE,[1],57.33 u/L
same,ALBUMIN,[1],4.03 G/DL
same,ALKALINE PHOSPHATASE,[1],437.67 u/L
same,ASPARTATE AMINOTRANSFERASE,[1],74.67 u/L
same,BLOOD UREA NITROGEN,[1],12 mg/dL
same,CARBON DIOXIDE,[1],24.33 mmol/L
same,CHLORIDE,[1],100.67 MEQ/L
same,CHOLESTEROL,[1],76.67 mg/dL
same,CREATINE PHOSPHOKINASE,[1],301 u/L
same,CREATININE,[1],0.16 mg/dL
same,GLUCOSE,[1],184.33 mg/dL
same,LACTATE DEHYDROGENASE,[1],187.33 u/L
same,LIPASE,[1],7 u/L
same,PHOSPHORUS,[1],10.63 mg/dL
same,POTASSIUM,[1],6.13 MEQ/L
same,SODIUM,[1],139.57 MEQ/L
same,TOTAL BILIRUBIN,[1],0.13 mg/dL
same,TOTAL PROTEIN,[1],5.83 G/DL
same,URIC ACID,[1],1.33 mg/dL
same,ABSOLUTE BASOPHIL,[2],0 CELLS/uL
same,ABSOLUTE EOSINOPHIL,[2],76.67 CELLS/uL
same,ABSOLUTE LYMPHOCYTE,[2],5496.33 CELLS/uL
same,ABSOLUTE MONOCYTE,[2],177.33 CELLS/uL
same,ABSOLUTE SEGMENTED NEUTROPHIL,[2],816.33 CELLS/uL
same,BASOPHIL,[2],0%
same,EOSINOPHIL,[2],1.33%
same,ERYTHROCYTE COUNT,[2],5.43 x10E6/uL
same,HEMATOCRIT,[2],34.5%
same,HEMOGLOBIN,[2],13.73 G/DL
same,LEUKOCYTE COUNT,[2],6.57 x10E3/uL
same,LYMPHOCYTE,[2],84.33%
same,MEAN CORPUSCULAR HEMOGLOBIN,[2],25.33 pg
same,MEAN CORPUSCULAR HEMOGLOBIN CONCENTRATION,[2],39.77 G/DL
same,MEAN CORPUSCULAR VOLUME,[2],63.67 fL
same,MONOCYTE,[2],2.67%
same,NEUTROPHIL,[2],11.67%
same,NUCLEATED RED BLOOD CELLS,[2],0 /100WBC
same,PLATELET COUNT,[2],1208.33 x10E3/uL
same,ALANINE AMINOTRANSFERASE,[2],50 u/L
same,ALBUMIN,[2],4.1 G/DL
same,ALKALINE PHOSPHATASE,[2],336 u/L
same,ASPARTATE AMINOTRANSFERASE,[2],69 u/L
same,BLOOD UREA NITROGEN,[2],13 mg/dL
same,CARBON DIOXIDE,[2],25.33 mmol/L
same,CHLORIDE,[2],100.33 MEQ/L
same,CHOLESTEROL,[2],70.67 mg/dL
same,CREATINE PHOSPHOKINASE,[2],260.33 u/L
same,CREATININE,[2],0.34 mg/dL
same,GLUCOSE,[2],191.33 mg/dL
same,LACTATE DEHYDROGENASE,[2],111 u/L
same,LIPASE,[2],9 u/L
same,PHOSPHORUS,[2],12.53 mg/dL
same,POTASSIUM,[2],6.51 MEQ/L
same,SODIUM,[2],140.03 MEQ/L
same,TOTAL BILIRUBIN,[2],0.1 mg/dL
same,TOTAL PROTEIN,[2],5.57 G/DL
same,URIC ACID,[2],2.1 mg/dL
same,ABSOLUTE BASOPHIL,[3],0 CELLS/uL
same,ABSOLUTE EOSINOPHIL,[3],0 CELLS/uL
same,ABSOLUTE LYMPHOCYTE,[3],1406 CELLS/uL
same,ABSOLUTE MONOCYTE,[3],62.67 CELLS/uL
same,ABSOLUTE SEGMENTED NEUTROPHIL,[3],98 CELLS/uL
same,BASOPHIL,[3],0%
same,EOSINOPHIL,[3],0%
same,ERYTHROCYTE COUNT,[3],5.5 x10E6/uL
same,HEMATOCRIT,[3],34.17%
same,HEMOGLOBIN,[3],13.53 G/DL
same,LEUKOCYTE COUNT,[3],1.57 x10E3/uL
same,LYMPHOCYTE,[3],90%
same,MEAN CORPUSCULAR HEMOGLOBIN,[3],24.63 pg
same,MEAN CORPUSCULAR HEMOGLOBIN CONCENTRATION,[3],39.63 G/DL
same,MEAN CORPUSCULAR VOLUME,[3],62.13 fL
same,MONOCYTE,[3],4%
same,NEUTROPHIL,[3],6%
same,NUCLEATED RED BLOOD CELLS,[3],0 /100WBC
same,PLATELET COUNT,[3],1169.33 x10E3/uL
same,ALANINE AMINOTRANSFERASE,[3],45 u/L
same,ALBUMIN,[3],3.97 G/DL
same,ALKALINE PHOSPHATASE,[3],263.67 u/L
same,ASPARTATE AMINOTRANSFERASE,[3],75.33 u/L
same,BLOOD UREA NITROGEN,[3],13 mg/dL
same,CARBON DIOXIDE,[3],24.33 mmol/L
same,CHLORIDE,[3],101 MEQ/L
same,CHOLESTEROL,[3],70.67 mg/dL
same,CREATINE PHOSPHOKINASE,[3],644 u/L
same,CREATININE,[3],0.13 mg/dL
same,GLUCOSE,[3],157 mg/dL
same,LACTATE DEHYDROGENASE,[3],154 u/L
same,LIPASE,[3],7.33 u/L
same,PHOSPHORUS,[3],9.53 mg/dL
same,POTASSIUM,[3],6.16 MEQ/L
same,SODIUM,[3],140.2 MEQ/L
same,TOTAL BILIRUBIN,[3],0.2 mg/dL
same,TOTAL PROTEIN,[3],5.73 G/DL
same,URIC ACID,[3],1.3 mg/dL
